Several values for one entry are separate records, joined by “and”; a condition that tells them apart may be missing. Equal entries are not always repeated. Numbers after ± are expanded uncertainties.

Our source for the Triple point temperature and Normal melting temperature values is the NIST ThermoML archive (doi:10.1016/j.tca.2014.05.022).

For the data set the following is noted: DTA; for Normal melting temperature: Crystal.

Take `CCCCCCCCCCCCO` [dodecan-1-ol]: the Normal melting temperature is 24.7 ± 0.5 °C and 24.2 ± 0.5 °C. Besides, for the setting “Crystal 1”, the Triple point temperature is 297.8 ± 0.9 K and 297.4 ± 0.9 K. Besides, for the setting “Crystal 2”, the Triple point temperature was found to be 296.4 ± 0.9 K.

For the compound `CCCCCCCCCCO` [decan-1-ol], the Normal melting temperature worked out at 7.5 ± 0.5 °C. The Triple point temperature (Crystal 1) was 280.6 ± 0.9 K and 280.8 ± 0.9 K. The Triple point temperature (Crystal 2) was 280.2 ± 0.9 K and 279.9 ± 0.9 K. Further, under “Crystal 3”, the Triple point temperature is 276.2 ± 0.9 K and 277.5 ± 0.9 K.

As for `CCCCCCCCCCCCCCCCCCO` [1-octadecanol], the Normal melting temperature was determined as 58.5 ± 0.5 °C. Moreover, the Triple point temperature (Crystal 1) was determined as 331.6 ± 0.9 K. Further, the Triple point temperature (Crystal 2) is 331 ± 0.9 K and 330.6 ± 0.9 K.

For the compound `CCCCCCCCCCCCCCO` [1-tetradecanol], the Normal melting temperature amounted to 38.2 ± 0.5 °C. Also, for the setting “Crystal 1”, the Triple point temperature was 311.2 ± 0.9 K and 311.4 ± 0.9 K. Also, the Triple point temperature (Crystal 2) is 310.2 ± 0.9 K and 310.4 ± 0.9 K.

Consider `CCCCCCCCCCCCCCCCO` [1-hexadecanol], for which the Normal melting temperature is 50 ± 0.5 °C. For the same compound, the Triple point temperature (Crystal 1) was 323.3 ± 0.87 K and 323 ± 0.9 K. Further, the Triple point temperature (Crystal 2) was 322.3 ± 0.9 K and 322.2 ± 0.9 K.

Turning to `CCCCCCCCO` [octan-1-ol], the Normal melting temperature was -14.4 ± 0.5 °C. Besides, the Triple point temperature (Crystal 1) is 258.7 ± 0.9 K and 258.3 ± 0.9 K. Also, the Triple point temperature (Crystal 2) is 255 ± 0.5 K and 256 ± 0.9 K.
